From patent US11702404B2, “GLP-1R modulating compounds” (priority 2019, dated 2023)

molecular target: GLP-1R (Homo sapiens, UniProt P43220); test: GLP-1R activation: cAMP increase in CHO cells stably expressing GLP-1R; type: cell-based; details: cAMP increase, CHO cells stably expressing GLP-1R, 10 point dose response, 30 minutes incubation; read-out: EC50
Sequence (P43220 24-463): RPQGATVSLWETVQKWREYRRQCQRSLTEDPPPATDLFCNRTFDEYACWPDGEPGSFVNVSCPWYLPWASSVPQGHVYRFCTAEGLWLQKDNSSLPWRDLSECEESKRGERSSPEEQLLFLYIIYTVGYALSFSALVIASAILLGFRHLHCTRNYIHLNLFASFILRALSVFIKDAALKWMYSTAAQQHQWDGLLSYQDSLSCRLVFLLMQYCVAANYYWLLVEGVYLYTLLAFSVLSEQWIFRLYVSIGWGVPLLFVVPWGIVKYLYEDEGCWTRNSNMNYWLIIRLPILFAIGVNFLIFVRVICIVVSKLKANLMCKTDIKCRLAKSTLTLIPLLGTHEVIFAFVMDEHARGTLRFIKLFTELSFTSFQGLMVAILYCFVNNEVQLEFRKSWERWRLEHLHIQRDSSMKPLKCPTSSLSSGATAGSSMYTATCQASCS

Structure (SMILES) | EC50 [nM]
N#Cc1ccc(COc2cccc(-c3cc(CO)c(Cc4nc5ccc(C(=O)O)cc5n4C[C@@H]4CCO4)cc3F)n2)c(F)c1 [Example 775] | 0.1
N#Cc1cc(F)c(COc2cccc(-c3ccc(Cc4nc5c(F)cc(C(=O)O)cc5n4C[C@@H]4CCO4)cc3F)n2)cc1F [Example 776] | 26.9
N#Cc1ccc(COc2ccnc(-c3ccc(Cc4nc5ccc(C(=O)O)cc5n4C[C@@H]4CCO4)cc3F)n2)c(F)c1 [Example 777] | 0.73
N#Cc1ccc(COc2ccnc(-c3cc(F)c(Cc4nc5c(F)cc(C(=O)O)cc5n4C[C@@H]4CCO4)cc3F)n2)c(F)c1 [Example 778] | 0.13
N#Cc1ccc(COc2nc(-c3cc(F)c(Cc4nc5c(F)cc(C(=O)O)cc5n4C[C@@H]4CCO4)cc3F)ccc2F)cn1 [Example 779] | 0.17
O=C(O)c1cc(F)c2nc(Cc3cc(F)c(-c4nc(OCc5ccc(C(F)(F)F)cc5F)ccc4F)cc3F)n(C[C@@H]3CCO3)c2c1 [Example 781] | 0.03
N#Cc1ccc(COc2ccc(F)c(-c3cc(F)c(Cc4nc5c(F)cc(C(=O)O)cc5n4CC45COC(C4)C5)cc3F)n2)c(F)c1 [Example 782] | 3.31
O=C(O)c1cc(F)c2nc(Cc3cc(F)c(-c4cccc(OCc5ccc(C(F)(F)F)cc5F)n4)cc3F)n(Cc3ncco3)c2c1 [Example 783] | 0.11
N#Cc1cc(F)c(COc2cccc(-c3cc(F)c(Cc4nc5c(F)cc(C(=O)O)cc5n4Cc4ncco4)cc3F)n2)cc1F [Example 784] | 0.55
O=C(O)c1ccc2nc(Cc3cc(F)c(-c4ccnc(OCc5ccc(C(F)(F)F)cc5F)n4)cc3F)n(C[C@@H]3CCO3)c2c1 [Example 785] | 0.05
N#Cc1cc(F)c(COc2nccc(-c3cc(F)c(Cc4nc5ccc(C(=O)O)cc5n4C[C@@H]4CCO4)cc3F)n2)cc1F [Example 786] | 0.22
O=C(O)c1ccc2nc(Cc3ccc(-c4ccnc(OCc5ccc(C(F)(F)F)cc5F)n4)c(F)c3)n(C[C@@H]3CCO3)c2c1 [Example 788] | 0.17
N#Cc1cc(F)c(COc2nccc(-c3ccc(Cc4nc5ccc(C(=O)O)cc5n4C[C@@H]4CCO4)cc3F)n2)cc1F [Example 789] | 1.18
O=C(O)c1ccc2nc(Cc3ccc(-c4ccnc(OCc5ccc(C(F)F)cc5F)n4)c(F)c3)n(C[C@@H]3CCO3)c2c1 [Example 790] | 0.44
COCCn1c(Cc2cc(F)c(-c3nc(OCc4ccc(C#N)cc4F)ccc3F)cc2F)nc2c(F)cc(C(=O)O)cc21 [Example 791] | 2.75

Next, values leading:

EC50 [nM] | Structure (SMILES)
0.51 | O=C(O)c1cc(F)c2nc(Cc3cc(F)c(-c4ccc(F)c(OCc5ccc(C(F)F)cc5F)n4)cc3F)n(C[C@@H]3CCO3)c2c1 [Example 767]
0.04 | N#Cc1ccc(COc2nc(-c3cc(F)c(Cc4nc5c(F)cc(C(=O)O)cc5n4C[C@@H]4CCO4)cc3F)ccc2F)c(F)c1 [Example 768]
0.03 | O=C(O)c1cc(F)c2nc(Cc3cc(F)c(-c4nc(OCc5ccc(C(F)F)cc5F)ccc4F)cc3F)n(C[C@@H]3CCO3)c2c1 [Example 769]
2.62 | O=C(O)c1cc(F)c2nc(Cc3ccc(-c4ccc(F)c(OCc5ccc(C(F)F)cc5F)n4)cc3F)n(CC34CC(CO3)C4)c2c1 [Example 770]
2.17 | N#Cc1ccc(COc2nc(-c3ccc(Cc4nc5c(F)cc(C(=O)O)cc5n4CC45CC(CO4)C5)c(F)c3)ccc2F)c(F)c1 [Example 771]
0.61 | O=C(O)c1ccc2nc(Cc3cc(F)c(-c4ccc(F)c(OCc5ccc(C(F)F)cc5F)n4)cc3F)n(CC34CC(CO3)C4)c2c1 [Example 772]
0.12 | O=C(O)c1ccc2nc(Cc3ccc(-c4ccc(F)c(OCc5ccc(C(F)F)cc5F)n4)cc3F)n(C[C@@H]3CCO3)c2c1 [Example 773]
0.06 | O=C(O)c1cc(F)c2nc(Cc3ccc(-c4ccc(F)c(OCc5ccc(C(F)F)cc5F)n4)cc3F)n(C[C@@H]3CCO3)c2c1 [Example 774]
0.12 | N#Cc1ccc(COc2nc(-c3ccc(Cc4nc5c(F)cc(C(=O)O)cc5n4C[C@@H]4CCO4)cc3F)ccc2F)c(F)c1 [Example 780]

system: not listed separately; test: Microsomal stability, human liver microsomes (predicted hepatic clearance); details: predicted from in vitro microsomal stability data

Structure (SMILES) | Predicted Hepatic Clearance (Pred. Cl.) [mL/min/kg]
N#Cc1ccc(COc2cccc(-c3cc(CO)c(Cc4nc5ccc(C(=O)O)cc5n4C[C@@H]4CCO4)cc3F)n2)c(F)c1 [Example 775] | 3.17
N#Cc1cc(F)c(COc2cccc(-c3ccc(Cc4nc5c(F)cc(C(=O)O)cc5n4C[C@@H]4CCO4)cc3F)n2)cc1F [Example 776] | 3.17
N#Cc1ccc(COc2ccnc(-c3ccc(Cc4nc5ccc(C(=O)O)cc5n4C[C@@H]4CCO4)cc3F)n2)c(F)c1 [Example 777] | 4.5
N#Cc1ccc(COc2ccnc(-c3cc(F)c(Cc4nc5c(F)cc(C(=O)O)cc5n4C[C@@H]4CCO4)cc3F)n2)c(F)c1 [Example 778] | 3.67
N#Cc1ccc(COc2nc(-c3cc(F)c(Cc4nc5c(F)cc(C(=O)O)cc5n4C[C@@H]4CCO4)cc3F)ccc2F)cn1 [Example 779] | 1.83
O=C(O)c1cc(F)c2nc(Cc3cc(F)c(-c4nc(OCc5ccc(C(F)(F)F)cc5F)ccc4F)cc3F)n(C[C@@H]3CCO3)c2c1 [Example 781] | 3.17
N#Cc1ccc(COc2ccc(F)c(-c3cc(F)c(Cc4nc5c(F)cc(C(=O)O)cc5n4CC45COC(C4)C5)cc3F)n2)c(F)c1 [Example 782] | 11.2
O=C(O)c1cc(F)c2nc(Cc3cc(F)c(-c4cccc(OCc5ccc(C(F)(F)F)cc5F)n4)cc3F)n(Cc3ncco3)c2c1 [Example 783] | 1.83
N#Cc1cc(F)c(COc2cccc(-c3cc(F)c(Cc4nc5c(F)cc(C(=O)O)cc5n4Cc4ncco4)cc3F)n2)cc1F [Example 784] | 1.83
O=C(O)c1ccc2nc(Cc3cc(F)c(-c4ccnc(OCc5ccc(C(F)(F)F)cc5F)n4)cc3F)n(C[C@@H]3CCO3)c2c1 [Example 785] | 1.83
N#Cc1cc(F)c(COc2nccc(-c3cc(F)c(Cc4nc5ccc(C(=O)O)cc5n4C[C@@H]4CCO4)cc3F)n2)cc1F [Example 786] | 1.83
O=C(O)c1ccc2nc(Cc3ccc(-c4ccnc(OCc5ccc(C(F)(F)F)cc5F)n4)c(F)c3)n(C[C@@H]3CCO3)c2c1 [Example 788] | 5.5
N#Cc1cc(F)c(COc2nccc(-c3ccc(Cc4nc5ccc(C(=O)O)cc5n4C[C@@H]4CCO4)cc3F)n2)cc1F [Example 789] | 5.67
O=C(O)c1ccc2nc(Cc3ccc(-c4ccnc(OCc5ccc(C(F)F)cc5F)n4)c(F)c3)n(C[C@@H]3CCO3)c2c1 [Example 790] | 3
COCCn1c(Cc2cc(F)c(-c3nc(OCc4ccc(C#N)cc4F)ccc3F)cc2F)nc2c(F)cc(C(=O)O)cc21 [Example 791] | 4.83

The next lines start with the values.

Predicted Hepatic Clearance (Pred. Cl.) [mL/min/kg] | Structure (SMILES)
1.83 | O=C(O)c1cc(F)c2nc(Cc3cc(F)c(-c4ccc(F)c(OCc5ccc(C(F)F)cc5F)n4)cc3F)n(C[C@@H]3CCO3)c2c1 [Example 767]
2.75 | N#Cc1ccc(COc2nc(-c3cc(F)c(Cc4nc5c(F)cc(C(=O)O)cc5n4C[C@@H]4CCO4)cc3F)ccc2F)c(F)c1 [Example 768]
3.67 | O=C(O)c1cc(F)c2nc(Cc3cc(F)c(-c4nc(OCc5ccc(C(F)F)cc5F)ccc4F)cc3F)n(C[C@@H]3CCO3)c2c1 [Example 769]
1.83 | O=C(O)c1cc(F)c2nc(Cc3ccc(-c4ccc(F)c(OCc5ccc(C(F)F)cc5F)n4)cc3F)n(CC34CC(CO3)C4)c2c1 [Example 770]
1.83 | N#Cc1ccc(COc2nc(-c3ccc(Cc4nc5c(F)cc(C(=O)O)cc5n4CC45CC(CO4)C5)c(F)c3)ccc2F)c(F)c1 [Example 771]
1.83 | O=C(O)c1ccc2nc(Cc3cc(F)c(-c4ccc(F)c(OCc5ccc(C(F)F)cc5F)n4)cc3F)n(CC34CC(CO3)C4)c2c1 [Example 772]
1.83 | O=C(O)c1ccc2nc(Cc3ccc(-c4ccc(F)c(OCc5ccc(C(F)F)cc5F)n4)cc3F)n(C[C@@H]3CCO3)c2c1 [Example 773]
2.08 | O=C(O)c1cc(F)c2nc(Cc3ccc(-c4ccc(F)c(OCc5ccc(C(F)F)cc5F)n4)cc3F)n(C[C@@H]3CCO3)c2c1 [Example 774]
1.83 | N#Cc1ccc(COc2nc(-c3ccc(Cc4nc5c(F)cc(C(=O)O)cc5n4C[C@@H]4CCO4)cc3F)ccc2F)c(F)c1 [Example 780]
